Experimental data taken from patent US20060052288A1, “Pharmaceutical composition for inhibiting the metastasis or preventing the recurrence of malignant tumor” (priority 2001, published 2006).

Assays:
[1] = test system: HT-29 cells (human colon cancer); assay: HT-29 metastatic models, dosing from day 15 (Experiment 2); assay type: in vivo, mouse; conditions: 10 animals, checked day 84; for Other organs MI (Metastatic Incidence): Diaphragm, Abdominal cavity, Thoracic cavity; for Liver MI (Metastatic Incidence) / Lung MI (Metastatic Incidence) / Lymph node MI (Metastatic Incidence) / Number of animals with metastasis: NCr nu/nu mice
Procedure: A test compound (Compound A; the compound obtained in Preparation 1 as mentioned below, Compound B; the compound obtained in Preparation 4 as mentioned below, and Irinotechan (CPT-11)) was dissolved in a physiological saline solution, and each amount as indicated in Table 2 as mentioned below was administered intravenously to the mice on the 15th, 19th, 23rd and 25th day after the implantation of tumor. On the other hand, in the control group (untreated with test compound), only a physiological saline solution was administered. The presence or absence of the metastasis of each organ was checked on the 84th day after the implantation of tumor.

[2] = test system: H460 cells (human lung cancer); assay: H460 metastatic models (Experiment 4); assay type: in vivo, mouse xenograft; set-up: key to Lymph node MI (Metastatic Incidence) / Liver MI (Metastatic Incidence) / Lung MI (Metastatic Incidence): number of animals with metastasis in the organ (out of 10); conditions: NCr nu/nu mice, 10 animals, checked day 36
Procedure: Experiment 4 (H460 Metastatic Models)
A segment (2 mm^2) of H460 cells (human lung cancer) was implanted into the left lung of 100 NCr nu/nu female mice (5 to 6 weeks old, 10 animals per group). […] On the other hand, in the control group (untreated with test compound), only a physiological saline solution was administered. The presence or absence of the metastasis of each organ was checked on the 36th day after the implantation of tumor.

[3] = test system: HT-29 cells (human colon cancer); assay: HT-29 metastatic models, dosing after lymph node metastasis observed (Experiment 3); assay type: in vivo; conditions: 10 animals, checked day 84; for Other organs MI (Metastatic Incidence): Diaphragm, Abdominal cavity, Thoracic cavity; for Liver MI (Metastatic Incidence) / Lung MI (Metastatic Incidence) / Lymph node MI (Metastatic Incidence) / Number of animals with metastasis: NCr nu/nu mice
Procedure: Experiment 3 (HT-29 Metastatic Models)
A segment (2 mm^2) of HT-29 cells (human colon cancer) was implanted into the vermiform appendix of 100 NCr nu/nu female mice (5 to 6 weeks old, 10 animals per group). Since the lymph node metastasis was observed on the 49th day after the implantation of tumor, a test compound (Compound A; the compound obtained in Preparation 1 as mentioned below, and Irinotechan (CPT-11)) was dissolved in a physiological saline solution, and each amount as indicated in Table 3 as mentioned below was administered intravenously to the mice on the 51st, 55th, 59th, and 63rd day after the implantation of tumor. On the other hand, in the control group (untreated with test compound), only a physiological saline solution was administered. The presence or absence of the metastasis of each organ was checked on the 84th day after the implantation of tumor.

[4] = test system: M 5076 cells (mouse ovarian sarcoma cells); assay: M 5076 liver metastatic models (survival); assay type: in vivo; conditions: for Prolongation rate of survival (%) / Survival days: BDF1 male mice; for Prolongation rate of survival (%): vs control; for Survival days: observed 120 days
Procedure: Experiment 1 (M 5076 Liver Metastatic Models)
One million of M 5076 cells (mouse ovarian sarcoma cells) were implanted into BDF1 male mice (5-weeks old, 8 animals per group) at the tail vein. […] In the control group (untreated with test compound), only a physiological saline solution was administered. The survival time (days) was measured in both the test compound-treated groups and the control group, and the prolongation rate of survival was calculated according to the following equation.

[5] = 2.5 mg/kg i.v. days 15, 19, 23, 25
[6] = 5 mg/kg i.v. days 15, 19, 23, 25
[7] = 2.5 mg/kg i.v. days 14, 18, 22, 26
[8] = 5 mg/kg i.v. days 14, 18, 22, 26
[9] = 40 mg/kg i.v. days 51, 55, 59, 63
[10] = 20 mg/kg i.v. days 15, 19, 23, 25
[11] = 40 mg/kg i.v. days 15, 19, 23, 25
[12] = 40 mg/kg i.v. days 14, 18, 22, 26
[13] = 80 mg/kg i.v. days 14, 18, 22, 26
[14] = 20 mg/kg i.v. days 51, 55, 59, 63
[15] = 10 mg/kg i.v. days 15, 19, 23, 25
[16] = 10 mg/kg i.v. days 14, 18, 22, 26
[17] = 20 mg/kg i.v. days 14, 18, 22, 26

Q: With “carboxymethyldextran-polyalcohol-(1S,9S)-1-(glycyl-glycyl-L-phenylalanyl-glycylamino)-9-ethyl-5-fluoro-2,3-dihydro-9-hydroxy-4-methyl-1H,12H-benzo[de]pyrano[3′,4′:6,7] indolizino[1,2-b]quinoline-10,13(9H,15H)-dione [Compound B]” as the compound, how does the “Other organs MI (Metastatic Incidence)” value [1, 5] read?
A: The value was 1.

Q: And the “Other organs MI (Metastatic Incidence)” value [1, 6]?
A: The value was 0.

Q: And the “Liver MI (Metastatic Incidence)” value [1, 5]?
A: The value was 1.

Q: What about the “Lung MI (Metastatic Incidence)” value [1, 5] of the same compound?
A: Its value is 1.

Q: And the “Lymph node MI (Metastatic Incidence)” value [1, 5]?
A: Its value is 6.

Q: And the “Number of animals with metastasis” value [1, 5]?
A: The value was 6.

Q: What about the “Liver MI (Metastatic Incidence)” value [1, 6] of the same compound?
A: Its value is 0.

Q: What about the “Lung MI (Metastatic Incidence)” value [1, 6] of the same compound?
A: Its value is 0.

Q: And the “Lymph node MI (Metastatic Incidence)” value [1, 6]?
A: Its value is 0.

Q: And the “Number of animals with metastasis” value [1, 6]?
A: The value was 0.

Q: And the “Liver MI (Metastatic Incidence)” value [2, 7]?
A: The value was 0.

Q: What about the “Lung MI (Metastatic Incidence)” value [2, 7] of the same compound?
A: Its value is 0.

Q: What about the “Lymph node MI (Metastatic Incidence)” value [2, 7] of the same compound?
A: Its value is 1.

Q: What about the “Number of animals with metastasis” value [2, 7] of the same compound?
A: Its value is 1.

Q: What about the “Liver MI (Metastatic Incidence)” value [2, 8] of the same compound?
A: Its value is 0.

Q: And the “Lung MI (Metastatic Incidence)” value [2, 8]?
A: The value was 1.

Q: And the “Lymph node MI (Metastatic Incidence)” value [2, 8]?
A: Its value is 2.

Q: What about the “Number of animals with metastasis” value [2, 8] of the same compound?
A: Its value is 2.

Q: Which results are given for `CCc1c2c(nc3ccc(OC(=O)N4CCC(N5CCCCC5)CC4)cc13)-c1cc3c(c(=O)n1C2)COC(=O)[C@]3(O)CC` [Irinotecan, reference compound]?
A: Other organs MI (Metastatic Incidence) [3, 9]: 1; Liver MI (Metastatic Incidence) [3, 9]: 1; Lung MI (Metastatic Incidence) [3, 9]: 0; Lymph node MI (Metastatic Incidence) [3, 9]: 8; Number of animals with metastasis [3, 9]: 8; Prolongation rate of survival (%) ([4]; 80 mg/kg i.v. on days 4, 8, 12): 50.0%; Survival days ([4]; 80 mg/kg i.v. on days 4, 8, 12 after implantation): 22.50 days; Other organs MI (Metastatic Incidence) [1, 10]: 0; Other organs MI (Metastatic Incidence) [1, 11]: 1; Liver MI (Metastatic Incidence) [1, 10]: 2; Lung MI (Metastatic Incidence) [1, 10]: 2; Lymph node MI (Metastatic Incidence) [1, 10]: 9; Number of animals with metastasis [1, 10]: 9; Liver MI (Metastatic Incidence) [1, 11]: 0; Lung MI (Metastatic Incidence) [1, 11]: 1; Lymph node MI (Metastatic Incidence) [1, 11]: 7; Number of animals with metastasis [1, 11]: 7; Liver MI (Metastatic Incidence) [2, 12]: 0; Lung MI (Metastatic Incidence) [2, 12]: 1; Lymph node MI (Metastatic Incidence) [2, 12]: 0; Number of animals with metastasis [2, 12]: 1; Liver MI (Metastatic Incidence) [2, 13]: 0; Lung MI (Metastatic Incidence) [2, 13]: 0; Lymph node MI (Metastatic Incidence) [2, 13]: 2; Number of animals with metastasis [2, 13]: 2

Q: Which results are given for “CM-dextran-7-ethyl-10-[3′-(glycyl-glycyl-glycylamino)propyloxy]-(20S)-camptothecin [Compound A]”?
A: Other organs MI (Metastatic Incidence) [3, 14]: 1; Other organs MI (Metastatic Incidence) [3, 9]: 2; Liver MI (Metastatic Incidence) [3, 14]: 0; Lung MI (Metastatic Incidence) [3, 14]: 0; Lymph node MI (Metastatic Incidence) [3, 14]: 2; Number of animals with metastasis [3, 14]: 3; Liver MI (Metastatic Incidence) [3, 9]: 0; Lung MI (Metastatic Incidence) [3, 9]: 0; Lymph node MI (Metastatic Incidence) [3, 9]: 0; Number of animals with metastasis [3, 9]: 2; Prolongation rate of survival (%) ([4]; 12.5 mg/kg i.v. on days 4, 8, 12): 150.5%; Survival days ([4]; 12.5 mg/kg i.v. on days 4, 8, 12 after implantation): 37.57 days; Prolongation rate of survival (%) ([4]; 25 mg/kg i.v. on days 4, 8, 12): 187.5%; Survival days ([4]; 25 mg/kg i.v. on days 4, 8, 12 after implantation): 43.13 days; Prolongation rate of survival (%) ([4]; 50 mg/kg i.v. on days 4, 8, 12): 224.8%; Survival days ([4]; 50 mg/kg i.v. on days 4, 8, 12 after implantation): 48.71 days; activity of prolonging lifetime ([4]; M5076 liver metastatic models, summary in words): excellent activity of prolonging lifetime; Other organs MI (Metastatic Incidence) [1, 6]: 2; Other organs MI (Metastatic Incidence) [1, 15]: 0; Other organs MI (Metastatic Incidence) [1, 10]: 0; Other organs MI (Metastatic Incidence) [1, 11]: 0; Liver MI (Metastatic Incidence) [1, 6]: 0; Lung MI (Metastatic Incidence) [1, 6]: 1; Lymph node MI (Metastatic Incidence) [1, 6]: 6; Number of animals with metastasis [1, 6]: 6; Liver MI (Metastatic Incidence) [1, 15]: 0; Lung MI (Metastatic Incidence) [1, 15]: 2; Lymph node MI (Metastatic Incidence) [1, 15]: 8; Number of animals with metastasis [1, 15]: 8; Liver MI (Metastatic Incidence) [1, 10]: 0; Lung MI (Metastatic Incidence) [1, 10]: 1; Lymph node MI (Metastatic Incidence) [1, 10]: 1; Number of animals with metastasis [1, 10]: 2; Liver MI (Metastatic Incidence) [1, 11]: 0; Lung MI (Metastatic Incidence) [1, 11]: 0; Lymph node MI (Metastatic Incidence) [1, 11]: 0; Number of animals with metastasis [1, 11]: 0; Liver MI (Metastatic Incidence) [2, 8]: 0; Lung MI (Metastatic Incidence) [2, 8]: 1; Lymph node MI (Metastatic Incidence) [2, 8]: 2; Number of animals with metastasis [2, 8]: 2; Liver MI (Metastatic Incidence) [2, 16]: 0; Lung MI (Metastatic Incidence) [2, 16]: 0; Lymph node MI (Metastatic Incidence) [2, 16]: 1; Number of animals with metastasis [2, 16]: 1; Liver MI (Metastatic Incidence) [2, 17]: 0; Lung MI (Metastatic Incidence) [2, 17]: 2; Lymph node MI (Metastatic Incidence) [2, 17]: 2; Number of animals with metastasis [2, 17]: 3; Liver MI (Metastatic Incidence) [2, 12]: 0; Lung MI (Metastatic Incidence) [2, 12]: 0; Lymph node MI (Metastatic Incidence) [2, 12]: 1; Number of animals with metastasis [2, 12]: 1
